Test results published in ChEMBL document CHEMBL5523759, “Discovery of Novel HDAC3 Inhibitors with PD-L1 Downregulating/Degrading and Antitumor Immune Effects” (J Med Chem, 2024).
pIC50: −log10 of the molar value. The source made the active and inactive calls. No cut-off for these calls is given here.

Key:
B16-F10 [1] = assay: Cytotoxicity against mouse B16-F10 cells assessed as increase in dead cells at 0.5 to 8 uM measured for 48 hrs by calcein-AM/propidium iodide staining based analysis; format: functional, cell-based; conditions: dose 0.5-8 µM
Histone deacetylase 3 = Histone deacetylase 3 (Homo sapiens, UniProt O15379); assay: Inhibition of human recombinant HDAC3 using Ac-Leu-Gly-Lys (Ac)-AMC as substrate preincubated with compound for 10 mins followed by substrate addition and measured after 45 mins by TECAN microtiter plate reader analysis
Sequence of Histone deacetylase 3 (O15379 whole entry): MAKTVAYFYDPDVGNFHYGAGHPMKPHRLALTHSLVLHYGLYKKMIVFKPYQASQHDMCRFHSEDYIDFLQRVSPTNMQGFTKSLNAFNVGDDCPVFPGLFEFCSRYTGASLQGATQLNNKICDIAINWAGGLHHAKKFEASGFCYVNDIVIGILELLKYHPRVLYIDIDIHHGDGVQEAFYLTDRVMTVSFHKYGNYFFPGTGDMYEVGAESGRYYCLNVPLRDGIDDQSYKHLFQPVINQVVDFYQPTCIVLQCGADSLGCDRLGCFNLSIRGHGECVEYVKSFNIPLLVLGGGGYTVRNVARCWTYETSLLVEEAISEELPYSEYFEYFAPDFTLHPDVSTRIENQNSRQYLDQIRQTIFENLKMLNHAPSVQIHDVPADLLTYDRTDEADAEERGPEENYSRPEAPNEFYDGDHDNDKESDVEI

[2] = biological target: T1, Histone deacetylase 8 (Mus musculus) (UniProt Q8VH37); assay: Inhibition of HDAC8 in mouse B16-F10 cells assessed as effect on acetylated SMC3 level at 1 to 2 uM measured for 24 hrs by Western blot analysis; format: cell-based; conditions: dose 1-2 µM
T1 sequence (whole entry): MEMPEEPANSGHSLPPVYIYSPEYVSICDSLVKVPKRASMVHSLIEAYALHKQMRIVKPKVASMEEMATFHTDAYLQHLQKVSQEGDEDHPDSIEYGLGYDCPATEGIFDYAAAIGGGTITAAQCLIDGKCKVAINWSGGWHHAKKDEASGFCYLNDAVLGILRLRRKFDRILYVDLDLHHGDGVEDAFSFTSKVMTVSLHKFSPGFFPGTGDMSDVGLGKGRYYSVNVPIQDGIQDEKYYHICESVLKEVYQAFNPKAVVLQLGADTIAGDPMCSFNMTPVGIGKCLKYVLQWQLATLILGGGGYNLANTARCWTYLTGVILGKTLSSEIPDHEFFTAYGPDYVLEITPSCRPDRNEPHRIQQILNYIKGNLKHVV

B16-F10 [3] = assay: Induction of apoptosis in mouse B16-F10 cells at 0.5 uM measured for 48 hrs by Annexin-V/FITC staining based flow cytometry analysis relative to control; format: functional
[4] = Oral bioavailability in Sprague-Dawley rat at 20 mg/kg measured up to 12 hrs by LC-MS/MS analysis; format: ADME, organism-based; conditions: in vivo
[5] = AUC (0 to t) in Sprague-Dawley rat at 2 mg/kg, iv measured up to 12 hrs by LC-MS/MS analysis; format: ADME, organism-based; conditions: in vivo
[6] = MRT (0 to infinity) in Sprague-Dawley rat at 2 mg/kg, iv measured up to 12 hrs by LC-MS/MS analysis; format: ADME, organism-based; conditions: in vivo
[7] = Toxicity in C57BL/6 mouse implanted with mouse B16-F10 cells assessed as lung damage at 25 mg/kg, po administered for 9 days by H and E staining based analysis; format: organism-based; conditions: in vivo, 216 h, time 9 day
[8] = Acute toxicity in po dosed C57BL/6J mouse assessed as lethal dose administered for 14 days; format: organism-based; conditions: in vivo, time 14 day
[9] = Tmax in Sprague-Dawley rat at 2 mg/kg, iv measured up to 12 hrs by LC-MS/MS analysis; format: ADME, organism-based; conditions: in vivo
[10] = Acute toxicity in C57BL/6J mouse assessed as survival rate at 1000 mg/kg, po administered for 14 days; format: organism-based; conditions: in vivo, time 14 day
[11] = Metabolic stability in rat liver microsome assessed as parent compound remaining measured at 15 mins; format: ADME; conditions: liver microsomes, read-out: Stability
[12] = Half life in Sprague-Dawley rat at 2 mg/kg, iv measured up to 12 hrs by LC-MS/MS analysis; format: ADME, organism-based; conditions: in vivo
[13] = Metabolic stability in rat liver microsome assessed as parent compound remaining measured immediately; format: ADME; conditions: liver microsomes, read-out: Stability
[14] = Half life in Sprague-Dawley rat at 20 mg/kg, po measured up to 12 hrs by LC-MS/MS analysis; format: ADME, organism-based; conditions: in vivo
B16-F10 [15] = assay: Antitumor activity against mouse B16-F10 cells implanted in C57BL/6 mouse model assessed as induction of PD-L1 degradation at 25 mg/kg, po administered for 9 days by Western blot analysis; format: functional, organism-based; conditions: time 9.0 day
[16] = MRT (0 to t) in Sprague-Dawley rat at 2 mg/kg, iv measured up to 12 hrs by LC-MS/MS analysis; format: ADME, organism-based; conditions: in vivo
B16-F10 [17] = assay: Antitumor activity against mouse B16-F10 cells implanted in C57BL/6 mouse model assessed as upregulation of Ac-H3 expression at 25 mg/kg, po administered for 9 days by Western blot analysis; format: functional, organism-based; conditions: time 9.0 day
[18] = Toxicity in C57BL/6 mouse implanted with mouse B16-F10 cells assessed as spleen damage at 25 mg/kg, po administered for 9 days by H and E staining based analysis; format: organism-based; conditions: in vivo, 216 h, time 9 day
[19] = Metabolic stability in mouse liver microsome assessed as parent compound remaining measured at 45 mins; format: ADME; conditions: liver microsomes, read-out: Stability
[20] = Metabolic stability in mouse liver microsome assessed as parent compound remaining measured immediately; format: ADME; conditions: liver microsomes, read-out: Stability
[21] = Clearance in Sprague-Dawley rat at 2 mg/kg, iv measured up to 12 hrs by LC-MS/MS analysis; format: ADME, organism-based; conditions: in vivo
B16-F10 [22] = assay: Antitumor activity against mouse B16-F10 cells implanted in C57BL/6 mouse model assessed as decrease in PD-L1 level at 25 mg/kg, po administered for 9 days by Western blot analysis; format: functional, organism-based; conditions: time 9.0 day
[23] = AUC (0 to infinity) in Sprague-Dawley rat at 2 mg/kg, iv measured up to 12 hrs by LC-MS/MS analysis; format: ADME, organism-based; conditions: in vivo
Tubulin = assay: Inhibition of tubulin polymerization (unknown origin) measured upto 20 mins by spectrophotometer analysis; format: protein-complex assay, Homo sapiens
B16-F10 [24] = assay: Antitumor activity against mouse B16-F10 cells implanted in C57BL/6 mouse model assessed as […] in Ac-H3 expression in tumor at 25 mg/kg, po administered for 9 days by immunofluorescence analysis; format: functional, organism-based; conditions: time 9.0 day
[25] = MRT (0 to t) in Sprague-Dawley rat at 20 mg/kg, po measured up to 12 hrs by LC-MS/MS analysis; format: ADME, organism-based; conditions: in vivo
[26] = Metabolic stability in rat liver microsome assessed as parent compound remaining measured at 45 mins; format: ADME; conditions: liver microsomes, read-out: Stability
[27] = Toxicity in C57BL/6 mouse implanted with mouse B16-F10 cells assessed as body weight loss at 25 mg/kg, po administered for 9 days; format: organism-based; conditions: in vivo, 216 h, time 9 day
[28] = Metabolic stability in mouse liver microsome assessed as parent compound remaining measured at 5 mins; format: ADME; conditions: liver microsomes, read-out: Stability
[29] = biological target: Programmed cell death 1 ligand 1 (Mus musculus, UniProt Q9EP73); assay: Induction of PD-L1 degradation in mouse B16-F10 cells measured for 24 hrs by Western blot analysis; format: cell-based
Sequence of Programmed cell death 1 ligand 1 (Q9EP73 whole entry): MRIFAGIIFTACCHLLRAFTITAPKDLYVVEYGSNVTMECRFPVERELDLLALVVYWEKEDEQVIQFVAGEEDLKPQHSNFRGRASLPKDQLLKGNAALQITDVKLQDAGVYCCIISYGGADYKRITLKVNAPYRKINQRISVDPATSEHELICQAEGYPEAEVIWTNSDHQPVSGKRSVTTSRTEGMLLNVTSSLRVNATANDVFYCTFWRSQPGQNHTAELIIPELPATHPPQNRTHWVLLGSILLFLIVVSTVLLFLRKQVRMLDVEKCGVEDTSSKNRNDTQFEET

[30] = Metabolic stability in rat liver microsome assessed as parent compound remaining measured at 30 mins; format: ADME; conditions: liver microsomes, read-out: Stability

With Nc1ccccc1NC(=O)c1ccc(-c2ncc(CNc3ccccc3)s2)cc1 the Activity (B16-F10 [1]) was “Active”, the pIC50 (Histone deacetylase 3) was 7.18 and the inhibition [2] was “inactive”. The Activity (B16-F10 [3]) was 11%.

With CCCNNC(=O)c1ccc(CNC(=O)c2ncc(CNc3ccccc3)s2)cc1 the bioavailability [4] was 57%, the Activity (B16-F10 [1]) was “Active” and the AUC(0-t) at 12 h [5] was 0.522 µg·h/mL. The MRT inf [6] was 33 min, the Activity [7] was “Non-Toxic” and the LD50 at 336 h [8] was over 1000 mg/kg. It also gave a Tmax [9] of 8.4 min, a survival at 336 h [10] of 80% and a remaining at 0.25 h [11] of 57.5%. The half-life [12] was 24 min, the remaining at 0 min [13] was 100% and the half-life [14] was 216 min. The Activity (B16-F10 [15]) was “Active”, the MRT last at 12 h [16] was 31.2 min and the Activity (B16-F10 [17]) was “Active”. The Activity [18] was “Non-Toxic”, the remaining at 0.75 h [19] was 4.03% and the remaining at 0 min [20] was 100%. The clearance [21] was 3.87 L/h/kg, the Activity (B16-F10 [22]) was “Active” and the AUC(0-inf) [23] was 0.529 µg·h/mL. For the same molecule, the pIC50 (Tubulin) was 5.14, the Activity (B16-F10 [24]) was “Active” and the MRT last at 12 h [25] was 191 min. For the same molecule, the remaining at 0.75 h [26] was 25.4%, the Activity [27] was “Non-Toxic” and the remaining at 5 min [28] was 70.4%. The DC50 [29] was 5.7 µM, the remaining at 0.5 h [30] was 38.5% and the inhibition [2] was “inactive”. It also gave an Activity (B16-F10 [3]) of 21.23%.
